According to ChEMBL document CHEMBL4828709, “Discovery of 2,4-pyrimidinediamine derivatives as potent dual inhibitors of ALK and HDAC” (Eur J Med Chem, 2021):
Active and inactive are the calls of the source. The rule behind the calls is not given here.

What was measured:
SH-SY5Y [1] = test: cells; assay type: functional, cell-based; conditions: Homo sapiens, 72 h
Description: Antiproliferative activity against human SH-SY5Y cells harboring ALK F1174L mutant assessed as inhibition of cell proliferation measured after 72 hrs by CCK8 assay

Histone deacetylase 1 [2] = target: T1, Histone deacetylase 1 (Homo sapiens, UniProt Q13547); conditions: Sf9, dose 10.0 nM, time 15.0 min
[3] = target: T2, ALK tyrosine kinase receptor (Homo sapiens, UniProt Q9UM73); test: Inhibition of ALK (unknown origin) at 100 nM preincubated for 10 mins followed by addition of substrate and ATP for 25 mins by caliper EZ reader method; conditions: time 35.0 min
[4] = target: ALK tyrosine kinase receptor (Homo sapiens, UniProt Q9UM73, L1196M)
HepG2 [5] = test: cells; assay type: functional, cell-based; conditions: Homo sapiens, HepG2, 72 h
Description: Antiproliferative activity against human HepG2 cells assessed as inhibition of cell proliferation measured after 72 hrs by CCK8 assay

NCI-H2228 = test: cells; assay type: functional, cell-based; conditions: Homo sapiens, NCI-H2228, 72 h
MDA-MB-231 [6] = test: cells; assay type: functional, cell-based; conditions: Homo sapiens, MDA-MB-231, 72 h
Description: Antiproliferative activity against human MDA-MB-231 cells assessed as inhibition of cell proliferation measured after 72 hrs by CCK8 assay

SH-SY5Y [7] = test: Inhibition of colony formation in human SH-SY5Y cells at 0.1 to 0.4 uM incubated for 3 days followed by incubation in drug-free medium for 12 days by crystal violet staining based assay; assay type: functional, cell-based; conditions: dose 0.1-0.4 µM, time 3.0 day
SH-SY5Y [8] = test: Antimigratory activity against human SH-SY5Y cells assessed as wound closure at 0.4 uM measured after 48 hrs by cell scratch assay (reference value: 15.1%); assay type: functional
MDA-MB-231 [9] = test: Induction of apoptosis in human MDA-MB-231 cells assessed as early apoptotic cells at 1 uM measured after 24 hrs by Annexin V-FITC/PI staining based flowcytometry ( Rvb = […]%); assay type: functional
MDA-MB-231 [10] = test: Induction of apoptosis in human MDA-MB-231 cells assessed as late apoptotic cells at 1 uM measured after 24 hrs by Annexin V-FITC/PI staining based flowcytometry ( Rvb = 5.28%); assay type: functional
MDA-MB-231 [11] = test: Induction of apoptosis in human MDA-MB-231 cells assessed as necrotic cells at 1 uM measured after 24 hrs by Annexin V-FITC/PI staining based flowcytometry (reference value: 0.94%); assay type: functional
MDA-MB-231 [12] = test: Induction of apoptosis in human MDA-MB-231 cells assessed as necrotic cells at 2 uM measured after 24 hrs by Annexin V-FITC/PI staining based flowcytometry (reference value: 0.94%); assay type: functional
MDA-MB-231 [13] = test: Induction of apoptosis in human MDA-MB-231 cells assessed as necrotic cells at 4 uM measured after 24 hrs by Annexin V-FITC/PI staining based flowcytometry (reference value: 0.98%); assay type: functional
SH-SY5Y [14] = test: Induction of apoptosis in human SH-SY5Y cells assessed as late apoptotic cells at 1 uM measured after 24 hrs by Annexin V-FITC/PI staining based flowcytometry (reference value: 14.32%); assay type: functional
SH-SY5Y [15] = test: Induction of apoptosis in human SH-SY5Y cells assessed as necrotic cells at 1 uM measured after 24 hrs by Annexin V-FITC/PI staining based flowcytometry (reference value: 7.81%); assay type: functional
SH-SY5Y [16] = test: Induction of apoptosis in human SH-SY5Y cells assessed as viable cells at 2 uM measured after 24 hrs by Annexin V-FITC/PI staining based flowcytometry (reference value: 77.05%); assay type: functional; conditions: read-out: Activity
SH-SY5Y [17] = test: Induction of apoptosis in human SH-SY5Y cells assessed as late apoptotic cells at 2 uM measured after 24 hrs by Annexin V-FITC/PI staining based flowcytometry (reference value: 14.32%); assay type: functional
SH-SY5Y [18] = test: Induction of apoptosis in human SH-SY5Y cells assessed as necrotic cells at 2 uM measured after 24 hrs by Annexin V-FITC/PI staining based flowcytometry (reference value: 7.81%); assay type: functional
SH-SY5Y [19] = test: Induction of apoptosis in human SH-SY5Y cells assessed as necrotic cells at 4 uM measured after 24 hrs by Annexin V-FITC/PI staining based flowcytometry (reference value: 7.81%); assay type: functional
MDA-MB-231 [20] = test: Cell cycle arrest in human MDA-MB-231 cells assessed as accumulation of cells at G1 phase at 2 uM measured after 24 hrs by PI staining based flowcytometry method (reference value: 55.32%); assay type: functional
MDA-MB-231 [21] = test: Cell cycle arrest in human MDA-MB-231 cells assessed as accumulation of cells at G1 phase at 4 uM measured after 24 hrs by PI staining based flowcytometry method (reference value: 55.32%); assay type: functional
SH-SY5Y [22] = test: Cell cycle arrest in human SH-SY5Y cells assessed as accumulation of cells at G2 phase at 1 uM measured after 24 hrs by PI staining based flowcytometry method (reference value: 13.23%); assay type: functional
SH-SY5Y [23] = test: Cell cycle arrest in human SH-SY5Y cells assessed as accumulation of cells at G1 phase at 2 uM measured after 24 hrs by PI staining based flowcytometry method (reference value: 59.8%); assay type: functional
Homo sapiens [24] = organism: Homo sapiens; test: Inhibition of human FLT at 1 uM
Homo sapiens [25] = organism: Homo sapiens; test: Inhibition of human CDK at 1 uM
[26] = Half life in Sprague-Dawley rat at 1 mg/kg, iv measured for 12 hrs by LC-MS/MS analysis; assay type: ADME, organism-based; conditions: in vivo
[27] = tested on: ALK tyrosine kinase receptor (Homo sapiens), Q9UM73 [G1202R]; test: Potency index, ratio of repotrectinib IC50 to test compound IC50 for inhibition of ALK G1202R mutant (unknown origin)
HepG2 [28] = test: Potency index, ratio of ceritinib IC50 to test compound IC50 for human HepG2 cells assessed as inhibition of cell proliferation measured after 72 hrs by CCK8 assay; assay type: functional
HepG2 [29] = test: Potency index, ratio of crizotinib IC50 to test compound IC50 for human HepG2 cells assessed as inhibition of cell proliferation measured after 72 hrs by CCK8 assay; assay type: functional
A549 = test: Potency index, ratio of ceritinib IC50 to test compound IC50 for human A549 cells assessed as inhibition of cell proliferation measured after 72 hrs by CCK8 assay; assay type: functional
MDA-MB-231 [30] = test: Potency index, ratio of ceritinib IC50 to test compound IC50 for human MDA-MB-231 cells assessed as inhibition of cell proliferation measured after 72 hrs by CCK8 assay; assay type: functional
MDA-MB-231 [31] = test: Potency index, ratio of crizotinib IC50 to test compound IC50 for human MDA-MB-231 cells assessed as inhibition of cell proliferation measured after 72 hrs by CCK8 assay; assay type: functional
[32] = target: Histone deacetylase (Homo sapiens) (UniProt Q13547+O15379+Q9UBN7+Q92769+Q9UQL6+Q8WUI4+Q9BY41+Q96DB2+P56524+Q9UKV0+Q969S8); test: Inhibition of HDAC in human SH-SY5Y cells assessed as increase of intracellular acetylated histone H3 level at 1 to 4 uM measured after 24 hrs by Western blot assay; assay type: cell-based; conditions: dose 1-4 µM
[33] = target: T2, ALK tyrosine kinase receptor; test: Inhibition of human ALK in human SH-SY5Y cells assessed as inhibition of Akt phosphorylation at Ser473 residue measured after 24 hrs by Western blot assay; assay type: cell-based; conditions: dose 1-4 µM
Histone deacetylase 1 [34] = target: T1, Histone deacetylase 1; test: biochemical
Description: Inhibition of recombinant human C-terminal His/FLAG-tagged HDAC1 (1 to 482 residues) expressed in Sf9 insect cells using Ac-peptide-AMC as substrate preincubated for 15 mins followed by addition of substrate and trypsin measured by flourescence assay

T2 sequence (Q9UM73 19-1620 limits assumed): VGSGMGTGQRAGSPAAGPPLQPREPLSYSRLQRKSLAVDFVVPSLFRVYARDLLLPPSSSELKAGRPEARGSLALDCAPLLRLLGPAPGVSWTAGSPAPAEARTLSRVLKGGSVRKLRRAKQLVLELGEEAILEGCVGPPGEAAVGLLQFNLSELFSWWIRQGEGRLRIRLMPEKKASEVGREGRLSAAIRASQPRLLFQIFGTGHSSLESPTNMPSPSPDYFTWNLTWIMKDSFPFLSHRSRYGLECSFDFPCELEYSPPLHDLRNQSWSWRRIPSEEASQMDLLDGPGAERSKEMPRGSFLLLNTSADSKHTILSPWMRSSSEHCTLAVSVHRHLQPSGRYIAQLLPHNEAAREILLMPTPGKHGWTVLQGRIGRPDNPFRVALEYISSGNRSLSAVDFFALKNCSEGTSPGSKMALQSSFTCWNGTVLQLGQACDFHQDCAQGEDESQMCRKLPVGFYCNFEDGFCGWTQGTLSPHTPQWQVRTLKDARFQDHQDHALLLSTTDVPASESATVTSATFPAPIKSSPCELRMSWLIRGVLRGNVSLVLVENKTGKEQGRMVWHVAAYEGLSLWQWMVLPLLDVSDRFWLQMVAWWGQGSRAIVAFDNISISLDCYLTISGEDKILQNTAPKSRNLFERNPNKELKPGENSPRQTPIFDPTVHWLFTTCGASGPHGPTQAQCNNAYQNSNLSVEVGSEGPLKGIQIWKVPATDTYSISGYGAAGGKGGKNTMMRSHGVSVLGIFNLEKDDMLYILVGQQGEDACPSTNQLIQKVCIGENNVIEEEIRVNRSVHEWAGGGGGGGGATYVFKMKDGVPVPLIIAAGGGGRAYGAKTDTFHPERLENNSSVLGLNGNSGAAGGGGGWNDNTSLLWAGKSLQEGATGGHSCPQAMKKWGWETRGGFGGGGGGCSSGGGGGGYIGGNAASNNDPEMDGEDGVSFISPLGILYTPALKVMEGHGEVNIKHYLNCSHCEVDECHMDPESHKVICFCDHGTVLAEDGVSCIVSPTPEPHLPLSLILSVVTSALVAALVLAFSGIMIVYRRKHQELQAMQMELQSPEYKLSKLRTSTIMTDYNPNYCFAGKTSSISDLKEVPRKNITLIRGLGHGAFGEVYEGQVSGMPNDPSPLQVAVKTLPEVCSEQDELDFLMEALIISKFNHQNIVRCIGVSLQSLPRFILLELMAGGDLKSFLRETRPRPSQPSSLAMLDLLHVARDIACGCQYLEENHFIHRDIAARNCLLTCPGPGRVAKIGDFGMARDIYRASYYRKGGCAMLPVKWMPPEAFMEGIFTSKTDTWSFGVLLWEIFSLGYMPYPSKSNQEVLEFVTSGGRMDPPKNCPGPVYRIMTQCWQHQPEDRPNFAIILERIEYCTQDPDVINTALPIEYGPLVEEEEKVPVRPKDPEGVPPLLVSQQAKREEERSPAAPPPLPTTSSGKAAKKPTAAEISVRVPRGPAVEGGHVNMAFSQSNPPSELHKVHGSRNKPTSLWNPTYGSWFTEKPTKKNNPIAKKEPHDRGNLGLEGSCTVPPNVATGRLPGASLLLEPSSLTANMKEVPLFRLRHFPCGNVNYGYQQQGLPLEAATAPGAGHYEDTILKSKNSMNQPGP
T1 sequence (Q13547 whole entry): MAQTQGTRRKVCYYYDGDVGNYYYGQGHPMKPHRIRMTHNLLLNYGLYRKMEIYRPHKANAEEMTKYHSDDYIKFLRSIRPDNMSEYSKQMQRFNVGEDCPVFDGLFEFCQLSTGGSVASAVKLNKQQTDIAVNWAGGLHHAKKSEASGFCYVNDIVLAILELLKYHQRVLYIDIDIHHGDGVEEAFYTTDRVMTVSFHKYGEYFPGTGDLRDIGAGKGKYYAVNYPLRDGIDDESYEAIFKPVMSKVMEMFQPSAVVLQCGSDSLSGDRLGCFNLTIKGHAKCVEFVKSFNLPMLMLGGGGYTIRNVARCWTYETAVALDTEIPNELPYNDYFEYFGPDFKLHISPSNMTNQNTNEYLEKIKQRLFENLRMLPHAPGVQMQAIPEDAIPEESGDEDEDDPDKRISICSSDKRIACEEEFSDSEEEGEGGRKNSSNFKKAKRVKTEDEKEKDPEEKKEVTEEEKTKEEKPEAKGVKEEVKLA
Chain of ALK tyrosine kinase receptor (Homo sapiens), Q9UM73 [G1202R] (Q9UM73 whole entry G1202R): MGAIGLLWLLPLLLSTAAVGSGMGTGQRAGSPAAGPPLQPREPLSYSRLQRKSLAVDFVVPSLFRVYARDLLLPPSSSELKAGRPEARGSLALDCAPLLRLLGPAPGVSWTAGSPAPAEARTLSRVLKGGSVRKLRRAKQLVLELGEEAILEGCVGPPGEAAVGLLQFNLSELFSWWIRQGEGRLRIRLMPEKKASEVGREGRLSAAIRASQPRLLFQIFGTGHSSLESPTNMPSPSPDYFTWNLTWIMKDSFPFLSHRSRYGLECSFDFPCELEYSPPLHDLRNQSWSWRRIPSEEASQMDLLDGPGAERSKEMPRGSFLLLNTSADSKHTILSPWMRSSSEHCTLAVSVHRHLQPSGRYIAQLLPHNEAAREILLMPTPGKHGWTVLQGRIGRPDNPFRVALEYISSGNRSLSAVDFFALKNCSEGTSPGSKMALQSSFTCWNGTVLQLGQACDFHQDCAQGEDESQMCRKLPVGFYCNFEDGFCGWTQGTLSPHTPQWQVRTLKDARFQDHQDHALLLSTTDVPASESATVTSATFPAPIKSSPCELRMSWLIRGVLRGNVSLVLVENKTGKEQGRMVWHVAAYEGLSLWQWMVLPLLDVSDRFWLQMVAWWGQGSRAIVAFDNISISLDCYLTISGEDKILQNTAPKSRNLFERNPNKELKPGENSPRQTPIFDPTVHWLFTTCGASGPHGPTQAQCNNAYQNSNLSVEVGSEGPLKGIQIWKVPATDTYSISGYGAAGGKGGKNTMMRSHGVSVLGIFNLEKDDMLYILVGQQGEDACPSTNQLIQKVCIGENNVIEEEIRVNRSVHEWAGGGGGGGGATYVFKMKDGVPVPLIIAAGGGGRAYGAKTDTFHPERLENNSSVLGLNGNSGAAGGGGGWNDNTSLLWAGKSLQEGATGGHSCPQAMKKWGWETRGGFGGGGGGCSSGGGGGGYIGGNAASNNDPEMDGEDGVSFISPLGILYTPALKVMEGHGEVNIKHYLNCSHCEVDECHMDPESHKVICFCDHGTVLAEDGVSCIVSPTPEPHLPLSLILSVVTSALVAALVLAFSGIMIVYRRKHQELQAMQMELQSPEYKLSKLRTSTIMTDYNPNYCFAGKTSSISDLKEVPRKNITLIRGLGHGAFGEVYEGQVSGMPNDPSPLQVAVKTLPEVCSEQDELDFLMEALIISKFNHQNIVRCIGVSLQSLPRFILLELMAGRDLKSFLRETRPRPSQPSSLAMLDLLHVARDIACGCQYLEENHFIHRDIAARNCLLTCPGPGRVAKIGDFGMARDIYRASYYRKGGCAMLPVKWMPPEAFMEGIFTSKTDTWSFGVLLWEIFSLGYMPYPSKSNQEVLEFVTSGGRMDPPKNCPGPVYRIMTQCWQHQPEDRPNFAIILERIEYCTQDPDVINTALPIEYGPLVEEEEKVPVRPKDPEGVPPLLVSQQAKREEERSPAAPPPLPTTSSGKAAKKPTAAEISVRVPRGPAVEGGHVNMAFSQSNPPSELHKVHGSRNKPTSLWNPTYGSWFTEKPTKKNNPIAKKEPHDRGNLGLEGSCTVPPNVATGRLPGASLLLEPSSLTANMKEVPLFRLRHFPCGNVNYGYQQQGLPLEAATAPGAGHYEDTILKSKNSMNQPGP
Chain of ALK tyrosine kinase receptor (Homo sapiens, UniProt Q9UM73, L1196M) (Q9UM73 19-1620 L1196M limits assumed): as the sequence (Q9UM73 19-1620 limits assumed) above, with L1178M counted along it

Compound: CC(C)S(=O)(=O)c1ccccc1Nc1nc(Nc2ccc(NC(=O)CCCCCCC(=O)NO)cc2)ncc1Cl
- IC50 (SH-SY5Y [1]): 110 nM
- inhibition (Histone deacetylase 1 [2]): 54%
- inhibition [3]: 96.6%
- IC50 [4]: 1.7 nM
- IC50 (HepG2 [5]): 640 nM
- IC50 (NCI-H2228): 130 nM
- IC50 (MDA-MB-231 [6]): 460 nM
- inhibition (SH-SY5Y [7]): Active
- Activity (SH-SY5Y [8]): 2.8%
- Activity (MDA-MB-231 [9]): 1.96%
- Activity (MDA-MB-231 [10]): 8.79%
- Activity (MDA-MB-231 [11]): 1.36%
- Activity (MDA-MB-231 [12]): 1.68%
- Activity (MDA-MB-231 [13]): 3.86%
- Activity (SH-SY5Y [14]): 21.05%
- Activity (SH-SY5Y [15]): 10.08%
- viability at 2 µM (SH-SY5Y [16]): 58.6%
- Activity (SH-SY5Y [17]): 28.89%
- Activity (SH-SY5Y [18]): 10.51%
- Activity (SH-SY5Y [19]): 12.95%
- Activity (MDA-MB-231 [20]): 32.53%
- Activity (MDA-MB-231 [21]): 34.64%
- Activity (SH-SY5Y [22]): 48.7%
- Activity (SH-SY5Y [23]): 3.56%
- inhibition (Homo sapiens [24]): Active
- inhibition (Homo sapiens [25]): 95%
- half-life [26]: 25.2 min
- Ratio IC50 [27]: 10
- Ratio IC50 (HepG2 [28]): 3
- Ratio IC50 (HepG2 [29]): 3
- Ratio IC50 (A549): 3
- Ratio IC50 (MDA-MB-231 [30]): 3
- Ratio IC50 (MDA-MB-231 [31]): 3
- inhibition [32]: Active
- inhibition [33]: Dose-Dependent Effect
- IC50 (Histone deacetylase 1 [34]): 7.9 nM
